Assay results: patent US11510952B2, “Ethanol extraction of psychoactive compounds from psilocybin fungus” (PSILO SCIENTIFIC LTD, priority 2020, dated 2022)

Tests used:
[1] = pH stability of purified psilocybin / psilocin over time under aqueous conditions; assay type: physicochemical; conditions: aqueous solutions across the pH spectrum
Text: The dephosphorylated indole alkaloids are well known to be unstable. Internal experiments have also quantified and substantiated these findings under aqueous conditions across the pH spectrum (Tables 5 and 6).

[2] = Solubility of psilocybin and psilocin in solvents; assay type: physicochemical
Protocol: Psilocybin and psilocin are soluble in methanol and water and are not soluble in isopropanol, ethanol and acetone. Experiments were performed to determine the best solvent compositions for extraction (FIGS. 32B and 32C; Table 7)

| Compound | maximum stability pH [1] | solubility in acetone [2] | solubility in ethanol [2] | solubility in isopropanol [2] | solubility in methanol [2] | solubility in water [2] |
| --- | --- | --- | --- | --- | --- | --- |
| CN(C)CCc1c[nH]c2cccc(O)c12 [Psilocin] | 4 pH | not soluble | not soluble | not soluble | soluble | soluble |
| CN(C)CCc1c[nH]c2cccc(OP(=O)(O)O)c12 [Psilocybin] | – | not soluble | not soluble | not soluble | soluble | soluble |
